The values below come from US9006454B2, “Dihydroorotate dehydrogenase inhibitors” (Merck Serono S.A., priority 2009, dated 2015).

In one assay the target is DHODH (Homo sapiens (Human), UniProt Q02127). The experiment in a line: DHODH activity assay (coupled enzyme assay, DCIP reduction, absorbance at 610 nm). The class given is biochemical. The conditions noted are these: for inhibition at 10 µM: compound at 10 uM, read-out: inh @ 10 uM hDHODH (%). The procedure:
The DHODH activity assay is a coupled enzyme assay in which oxidation of DHO and subsequent reduction of ubiquinone are stoichiometrically equivalent to the reduction of DCIP ([…]). The reduction of DCIP is accompanied by a loss of absorbance at 610 nm.
Buffer Preparation: 50 mM tris HCl, 150 mM KCl, and pH 8.0, 0.8% triton.
5 μL of Dimethyl sulfoxide or a compound of formula I in DMSO solution was added to the wells of a 96 well plate. Compounds of formula I were measured at 10 μM.
Protein along with buffer was added, so that the total volume including the DMSO was 87 μL. Compound and protein were incubated for half an hour at room temperature after mixing. 5 μL of 20 mM solution of L-Dihydroorotic acid, 5 μL of 2 mM solution of Decylubiquinone and 3 μL of 2 mM solution of 2,6-Dichloroindophenol sodium salt hydrate were added to the above solution (total assay volume 100 μL). The mixture was stirred for 2 min and absorbance was recorded at every 10 min at 610 nanometers.
Percent Inhibition is Calculated as Follows
Positive control contains DMSO, buffer, enzyme and substrates
No Enzyme reaction contains DMSO, buffer and substrates
IC50 determination: • A 2 mM DMSO stock of the compound of formula I to be examined was prepared. ⅓rd dilutions were made as follows:
5 μL of each stock of compound of formula I (solution indicated in column 4 of table) was used for each 100 μL assay. Therefore, 5 μL of the 2 mM stock provided 100 μL of 100 μM solution of compound of formula I, when made up with buffer, protein and substrate. See also: Ulrich et al. (2001) Eur. J. Biochem. 268, 1861-1868.

The test system of the next assay is Jurkat cells. In words: Measurement of cell proliferation (Jurkat cell), XTT assay. The class given is cell-based. The settings on record: Homo sapiens, Jurkat; compound at 1 uM; read-out: % inh Jurkat_cells @ 1 uM (%). As for the experimental part:
See also Roehm, N et al [1991] An improved colorimetric assay for cell proliferation and viability utilizing the tetrazolium salt XTT. J. Immunol. Methods 142:257-265.
Culture Jurkat cells in T-25 flasks at a density of 0.2×10^6/ml 2-3 days before the day of experiment set up.
Centrifuge Jurkat T-cell suspension at 1200 rpm for 10 minutes and resuspend cells again in fresh RPMI medium with 10% FBS.
Count the cells and dilute suspension to a density of 2×10^6 cells/ml. Seed 50 μL of this suspension in each well of a 96 well plate (100,000 cells per well). Keep the edges of the plate empty to avoid evaporation.
Serially dilute DMSO stocks of compounds to get different concentrations for an EC50 curve. 50 μL of compound diluted in media (2× concentration required in well) is added to each well. DMSO concentration should be kept constant at 0.25-0.5% for all wells.
Typically, for all compounds with IC50<1 μM, compound concentration can start at 10 μM followed by half log dilutions for a total of 8-10 concentrations. Each concentration has to be tested in triplicate.
Include controls such as cells without compound (with same DMSO concentration as compound wells), and media control
Incubate the 96 well plate in a CO2 incubator at 37° C. for 72 hrs before determining cell viability using XTT assay
XTT assay: to each well, add 50 μL of 1 mg/ml XTT solution with 20 μl of PMS/mL. Read the plates after 2 hours at 465 nm using the spectrophotometer. XTT reading for media without cells is used as background reading.
Calculate % cell viability assuming that the cells without compound are 100% viable.
Plot % cell viability as a function of concentration and determine EC50 by using software such as Graph Pad Prism to fit the curve.

Chain of DHODH (Q02127 whole entry): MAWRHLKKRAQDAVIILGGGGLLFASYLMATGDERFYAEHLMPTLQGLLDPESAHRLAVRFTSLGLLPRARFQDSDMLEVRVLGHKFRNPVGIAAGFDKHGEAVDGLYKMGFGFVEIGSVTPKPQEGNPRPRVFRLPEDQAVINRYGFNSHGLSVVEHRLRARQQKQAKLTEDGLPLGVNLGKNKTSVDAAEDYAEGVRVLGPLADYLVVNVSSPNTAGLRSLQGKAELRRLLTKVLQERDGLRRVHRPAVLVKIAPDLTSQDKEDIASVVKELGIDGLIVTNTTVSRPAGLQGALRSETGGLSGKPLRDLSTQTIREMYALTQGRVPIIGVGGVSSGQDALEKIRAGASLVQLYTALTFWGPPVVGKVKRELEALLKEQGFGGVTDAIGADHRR

In the case of `Cc1cc(C(=O)O)c2[nH]c(-c3ccc(-c4ccccn4)cc3)nc2c1` [I74, 6-Methyl-2-(4-pyridin-2-yl-phenyl)-3H-benzoimidazole-4-carboxylic acid], on DHODH, the inhibition at 10 µM was 56.6%. In the assay on Jurkat cells, the inhibition at 1 µM amounted to 18.4%.

For `Cc1cc(C(=O)O)c2[nH]c(-c3ccc(-c4ccccc4)nc3)nc2c1` [I75, 6-Methyl-2-(6-phenyl-pyridin-3-yl)-3H-benzoimidazole-4-carboxylic acid], at DHODH, the IC50 turned out to be 3820 nM and the inhibition at 10 µM was 82.4%. Also, the inhibition at 1 µM with Jurkat cells stood at 39.3%.

As to `Cc1cc(C(=O)O)c2[nH]c(-c3ccc(-c4c(F)cccc4F)cc3)nc2c1` [I76, 2-(2′,6′-Difluoro-biphenyl-4-yl)-6-methyl-3H-benzoimidazole-4-carboxylic acid], at DHODH, the midpoint of inhibition, the IC50, lay at 344 nM and the inhibition at 10 µM was found to be 100%. Moreover, the inhibition at 1 µM in the assay on Jurkat cells turned out to be 83.5%.

Regarding `N#Cc1ccc(Oc2ccc(-c3nc4cccc(C(=O)O)c4[nH]3)cc2)cc1` [I77, 2-[4-(4-Cyano-phenoxy)-phenyl]-3H-benzoimidazole-4-carboxylic acid], the inhibition at 10 µM at DHODH is 34.6%. For the same molecule, the inhibition at 1 µM in the assay with Jurkat cells is 11.5%.

As for `Cc1cc(C(=O)O)c2[nH]c(-c3ccc(Oc4ccc(C#N)cc4)cc3)nc2c1` [I78, 2-[4-(4-Cyano-phenoxy)-phenyl]-6-methyl-3H-benzoimidazole-4-carboxylic acid], the inhibition at 10 µM at DHODH turned out to be 58.5%. The inhibition at 1 µM in the assay on Jurkat cells was determined as 22.2%.

For `O=C(O)c1cccc2[nH]c(-c3ccc(N4CCCCCC4=O)cc3)nc12` [I81, 2-[4-(2-Oxo-azepan-1-yl)-phenyl]-1H-benzoimidazole-4-carboxylic acid], at DHODH, the inhibition at 10 µM worked out at 17.9%. Further, in the assay on Jurkat cells, the inhibition at 1 µM is 6.7%.

Regarding `Cc1cc(C(=O)O)c2nc(-c3c(F)c(F)c(-n4c(C)ccc4C)c(F)c3F)[nH]c2c1` [I82, 2-[4-(2,5-Dimethyl-pyrrol-1-yl)-2,3,5,6-tetrafluoro-phenyl]-6-methyl-1H-benzoimidazole-4-carboxylic acid], at DHODH, the IC50 stood at 5.6 nM and the inhibition at 10 µM was 111%. Further, in the assay with Jurkat cells, the inhibition at 1 µM turned out to be 106%.

For the molecule `Cc1cc(C(=O)O)c2nc(-c3c(F)c(F)c(-c4ccc(CN5CCCCC5)cc4)c(F)c3F)[nH]c2c1` [I83, 6-Methyl-2-(2,3,5,6-tetrafluoro-4′-piperidin-1-ylmethyl-biphenyl-4-yl)-1H-benzoimidazole-4-carboxylic acid], at DHODH, the IC50 was determined as 78 nM and the inhibition at 10 µM worked out at 111%. In addition, the inhibition at 1 µM with Jurkat cells was determined as 93%.

In the case of `Cc1cc(C(=O)O)c2nc(-c3c(F)c(F)c(-c4ccc(NC(=O)C5CCCN5)cc4)c(F)c3F)[nH]c2c1` (stereo not shown) [I85], at DHODH, the IC50 was determined as 56 nM and the inhibition at 10 µM was found to be 104%. The inhibition at 1 µM in the assay on Jurkat cells is 93.4%.

In the case of `Cc1cc(C(=O)O)c2nc(-c3c(F)c(F)c(-c4cccc(NC(=O)C5CCCN5)c4)c(F)c3F)[nH]c2c1` (stereo not shown) [I86], at DHODH, the IC50 worked out at 815 nM and the inhibition at 10 µM stood at 93.1%. For the same molecule, the inhibition at 1 µM with Jurkat cells was determined as 70.8%.

In the case of `Cc1cc(C(=O)O)c2nc(-c3ccc(-c4ccc(OCCCN5CCOCC5)cc4)cc3)[nH]c2c1` [I87], at DHODH, half-maximal inhibition (IC50) was put at 3020 nM and the inhibition at 10 µM is 74.1%. The inhibition at 1 µM with Jurkat cells amounted to 35.7%.

Turning to `Cc1cc(C(=O)O)c2nc(-c3ccc(-c4ccc(OCCCN5CCCCC5)cc4)cc3)[nH]c2c1` [I88], on DHODH, the half-inhibitory concentration (IC50) amounted to 1630 nM and the inhibition at 10 µM worked out at 82.9%. Moreover, the inhibition at 1 µM in the assay on Jurkat cells is 40.3%.

Regarding `Cc1cc(C(=O)O)c2nc(-c3ccc(-c4ccc(NC(=O)[C@@H]5CCCN5)cc4)cc3)[nH]c2c1` [I89], on DHODH, the inhibition at 10 µM is 94.1%. In addition, in the assay with Jurkat cells, the inhibition at 1 µM was 52%.

As for `Cc1cc(C(=O)O)c2nc(-c3ccc(-c4ccc(NC(=O)C5CCNCC5)cc4)cc3)[nH]c2c1` [I90], on DHODH, the IC50 came to 3690 nM and the inhibition at 10 µM came out at 78.8%. Further, the inhibition at 1 µM in the assay with Jurkat cells is 44.5%.

In the case of `Cc1cc(C(=O)O)c2[nH]c(-c3ccc(-c4ccc(O)c(O)c4)cc3)nc2c1` [I91], on DHODH, the concentration for half-maximal inhibition (IC50) worked out at 645 nM and the inhibition at 10 µM amounted to 94.2%. The inhibition at 1 µM with Jurkat cells is 62.3%.

Consider `Cc1cc(C(=O)O)c2nc(-c3ccc(-c4ccc(C(=O)NC5CCNCC5)cc4)cc3)[nH]c2c1` [I92], for which, at DHODH, the IC50 is 6640 nM and the inhibition at 10 µM worked out at 59.7%. The inhibition at 1 µM in the assay with Jurkat cells was found to be 16.3%.

Turning to `Cc1cc(C(=O)O)c2nc(-c3ccc(-c4ccccc4)cc3)n(CCO)c2c1` [I93], at DHODH, the IC50 was found to be 4790 nM and the inhibition at 10 µM worked out at 78.8%. For the same molecule, the inhibition at 1 µM in the assay on Jurkat cells stood at 29%.

Regarding `Cc1cc(C(=O)O)c2c(c1)nc(-c1c(F)c(F)c(-c3ccc(O)cc3)c(F)c1F)n2CCO` [I94], on DHODH, the IC50 stood at 78 nM and the inhibition at 10 µM came out at 89.7%. Moreover, the inhibition at 1 µM with Jurkat cells turned out to be 82.5%.

Turning to `Cc1cc(C(=O)O)c2[nH]c(-c3ccc(-c4ccc(OCCC5CCNCC5)cc4)cc3)nc2c1` [I95], at DHODH, half-maximal inhibition (IC50) was put at 6010 nM and the inhibition at 10 µM is 58.7%. Further, in the assay on Jurkat cells, the inhibition at 1 µM amounted to 14.3%.

As to `Cc1cc(C(=O)O)c2[nH]c(-c3c(F)c(F)c(-c4ccc(O)cc4)c(F)c3F)nc2c1` [I96], on DHODH, the IC50 turned out to be 16 nM and the inhibition at 10 µM stood at 98.4%. Besides, in the assay on Jurkat cells, the inhibition at 1 µM came out at 102%.

As to `Cc1cc(C(=O)O)c2c(c1)nc(-c1ccc(-c3ccc(O)cc3)cc1)n2CCO` [I97], at DHODH, the IC50 came out at 2140 nM and the inhibition at 10 µM was 80%. Also, the inhibition at 1 µM in the assay on Jurkat cells turned out to be 37.6%.

Regarding `CONC(=O)c1cc(C)cc2nc(-c3c(F)c(F)c(-c4ccccc4)c(F)c3F)[nH]c12` [I98], at DHODH, half-maximal inhibition (IC50) was put at 2200 nM and the inhibition at 10 µM was determined as 66.2%. The inhibition at 1 µM in the assay on Jurkat cells came out at 30.1%.

Turning to `Cc1cc(C(=O)O)c2[nH]c(-c3ccc(-c4ccc(OCCO)cc4)cc3)nc2c1` [I99], at DHODH, it took 3100 nM to reach half-maximal inhibition (IC50) and the inhibition at 10 µM stood at 71%. The inhibition at 1 µM in the assay with Jurkat cells stood at 27.7%.

`Cc1cc(C(=O)O)c2[nH]c(-c3c(F)c(F)c(-c4ccccc4OCc4ccccc4)c(F)c3F)nc2c1` [I100]: on DHODH, half-maximal inhibition (IC50) required 60 nM and the inhibition at 10 µM was 104%. Further, the inhibition at 1 µM in the assay on Jurkat cells turned out to be 96.2%.

`O=C(O)c1cccc2nc(-c3c(F)c(F)c(-c4ccccc4OCc4ccccc4)c(F)c3F)[nH]c12` [I101]: on DHODH, it took 707 nM to reach half-maximal inhibition (IC50) and the inhibition at 10 µM came to 82.2%. The inhibition at 1 µM with Jurkat cells came to 60.1%.

As for `Cc1cc(C(N)=O)c2nc(-c3c(F)c(F)c(-c4ccccc4)c(F)c3F)[nH]c2c1` [I102], on DHODH, half-maximal inhibition (IC50) was put at 446 nM and the inhibition at 10 µM was determined as 87.9%. In the assay on Jurkat cells, the inhibition at 1 µM was determined as 64.2%.

`Cc1cc(-c2nnn[nH]2)c2nc(-c3c(F)c(F)c(-c4ccccc4)c(F)c3F)[nH]c2c1` [I103]: on DHODH, the IC50 came to 1200 nM and the inhibition at 10 µM turned out to be 107%. Besides, the inhibition at 1 µM with Jurkat cells stood at 64.2%.

Regarding `Cc1cc(C(=O)O)c2[nH]c(-c3c(F)c(F)c(-c4cccc(O)c4)c(F)c3F)nc2c1` [I104], at DHODH, the IC50 is 13.5 nM and the inhibition at 10 µM turned out to be 104%. For the same molecule, the inhibition at 1 µM in the assay with Jurkat cells was determined as 110%.

For `Cc1cc(C(=O)O)c2[nH]c(-c3c(F)c(F)c(-c4cccc(OCc5ccccc5)c4)c(F)c3F)nc2c1` [I105], on DHODH, the IC50 worked out at 13.6 nM and the inhibition at 10 µM turned out to be 95.8%. Besides, the inhibition at 1 µM in the assay on Jurkat cells was found to be 91.9%.
